Results from patent publication US8119647B2, “Fused pyrimidineone compounds as TRPV3 modulators” (Glenmark Pharmaceuticals S.A., priority 2008, dated 2012).

Target: T1, Human TRPV3 (Homo sapiens, UniProt Q8NET8)
T1 construct: expressed in transfected cells; host or cells: CHO cells (G-418 selection)
T1 sequence (Q8NET8 1-790): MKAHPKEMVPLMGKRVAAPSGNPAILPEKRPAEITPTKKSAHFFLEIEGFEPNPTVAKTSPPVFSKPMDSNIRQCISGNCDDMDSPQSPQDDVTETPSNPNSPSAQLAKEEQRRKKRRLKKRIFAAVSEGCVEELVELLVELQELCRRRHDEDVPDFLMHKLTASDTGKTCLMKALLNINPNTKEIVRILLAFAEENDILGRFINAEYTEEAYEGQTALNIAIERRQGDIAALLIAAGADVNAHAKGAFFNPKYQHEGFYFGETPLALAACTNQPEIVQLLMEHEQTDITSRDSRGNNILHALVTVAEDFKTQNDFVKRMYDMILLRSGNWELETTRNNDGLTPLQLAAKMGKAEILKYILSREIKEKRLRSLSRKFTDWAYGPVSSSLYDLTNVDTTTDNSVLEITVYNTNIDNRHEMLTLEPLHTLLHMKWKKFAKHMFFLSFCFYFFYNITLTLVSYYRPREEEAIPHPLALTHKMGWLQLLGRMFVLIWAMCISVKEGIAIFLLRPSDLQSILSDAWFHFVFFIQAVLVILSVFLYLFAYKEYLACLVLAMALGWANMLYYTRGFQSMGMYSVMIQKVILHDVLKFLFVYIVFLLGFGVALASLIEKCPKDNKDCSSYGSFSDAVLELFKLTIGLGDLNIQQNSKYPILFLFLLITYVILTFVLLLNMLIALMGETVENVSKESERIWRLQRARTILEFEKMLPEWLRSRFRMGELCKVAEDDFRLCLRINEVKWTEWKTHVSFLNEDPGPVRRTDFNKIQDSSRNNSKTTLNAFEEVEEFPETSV
Test: Screening for TRPV3 antagonist using the 45Calcium uptake assay (inhibition of 2-APB induced cellular uptake of radioactive calcium)
Format: cell-based
Conditions: human TRPV3 expressing CHO cells, 2-APB 500 μM; for inhibition at 1 µM / Percentage inhibition at 1.0 μM: 1.0 μM test compound; for inhibition at 1 µM: read-out: Percentage inhibition at 1.0 μM; for inhibition at 10 µM / Percentage inhibition at 10.0 μM: 10.0 μM test compound; for inhibition at 10 µM: read-out: Percentage inhibition at 10.0 μM; for IC50: class symbols
Description: The illustrative examples of the present invention are screened for TRPV3 activity according to a modified procedure described in Tóth, A., Kedei, N., Wang, Y. and Blumberg, P. M. Life Sciences (2003), 73, 487-498. The screening of the compounds can be carried out by other methods and procedures known to a person skilled in the art. Such screening methods may be found in (a) Hu, H.-Z. et al. J. Biol. Chem. (2004), 279, 35741-35747; (b) Smith, G. D. et al. Nature (2002), 418, 186-190; (c) Peier, A. M. et al. Science (2002), 296, 2046-2049.
Screening for TRPV3 Antagonist Using the ^45Calcium Uptake Assay:
The inhibition of TRPV3 receptor activation was followed as inhibition of 2-aminoethoxydiphenylborate (2-APB) induced cellular uptake of radioactive calcium. Test compounds were dissolved in dimethyl sulfoxide (DMSO) to prepare 20 mM stock solution and then diluted using plain medium with DMEM/F-12 containing 1.8 mM CaCl2 to get desired concentration. Final concentration of DMSO in the reaction was 0.5% (v/v). Human TRPV3 expressing CHO cells were grown in DMEM/F-12 medium with 10% FBS, 1% penicillin-streptomycin solution, 400 μg/ml of G-418. Cells were seeded 24 h prior to the assay in 96 well plates so as to get ˜50,000 cells per well on the day of experiment. Cells were treated with test compounds for 10 minutes followed by addition of 2-APB at a final concentration of 500 μM and 5 μCi/ml ^45Ca^+2 for 4 minutes. Cells were washed and lysed using buffer containing 1% Triton X-100, 0.1% deoxycholate and 0.1% SDS. Radioactivity in the lysate was measured in Packardt Top count after addition of liquid scintillant. Concentration response curves were plotted as a % of maximal response obtained in the absence of test antagonist. IC50 value was calculated from concentration response curve by nonlinear regression analysis using GraphPad PRISM software.
Percentage inhibition at concentrations of 1.0 μM and 10.0 μM are given in the table along with IC50 (nM) values for selected examples.

SMILES | inhibition at 1 µM | inhibition at 10 µM | IC50 | Percentage inhibition at 1.0 μM | Percentage inhibition at 10.0 μM
N#Cc1ccc(-c2c(/C=C/c3cccnc3)nc3sccn3c2=O)cc1 [Example 23, 4-{5-Oxo-7-[(E)-2-(3-pyridyl)-1-ethenyl]-5H-[1,3]thiazolo[3,2-a]pyrimidin-6-yl}-benzonitrile] | 15.4% | 1.2% |  |  | 
O=c1c(-c2ccc(C(F)(F)F)cc2)c(/C=C/c2ccccc2OCC2CC2)nc2sccn12 [Example 24] | 36.3% | 67.4% |  |  | 
CCCOc1c(/C=C/c2nc3sccn3c(=O)c2-c2ccc(C(F)(F)F)cc2)cccc1OC [Example 25, 7-[(E)-2-(3-Methoxy-2-propoxyphenyl)-1-ethenyl]-6-[4-(trifluoromethyl)phenyl]-5H-[1,3]thiazolo[3,2-a]pyrimidin-5-one] | 70.7% | 89.9% | 500 to 1000 nM |  | 
CCCCOc1c(/C=C/c2nc3sccn3c(=O)c2-c2ccc(C(F)(F)F)cc2)cccc1OC [Example 26, 7-[(E)-2-(2-Butoxy-3-methoxyphenyl)-1-ethenyl]-6-[4-(trifluoromethyl)phenyl]-5H-[1,3]thiazolo[3,2-a]pyrimidin-5-one] | 56.6% | 84.5% |  |  | 
COc1cccc(/C=C/c2nc3sccn3c(=O)c2-c2ccc(C(F)(F)F)cc2)c1OCC(C)C [Example 27, 7-[(E)-2-(2-Isobutoxy-3-methoxyphenyl)-1-ethenyl]-6-[4-(trifluoromethyl)phenyl]-5H-[1,3]thiazolo[3,2-a]pyrimidin-5-one] | 69.6% | 88% | < 250 nM |  | 
COc1cccc(/C=C/c2nc3sccn3c(=O)c2-c2ccc(C(F)(F)F)cc2)c1OCCC(C)C [Example 28, 7-[(E)-2-(2-Isopentyloxy-3-methoxyphenyl)-1-ethenyl]-6-[4-(trifluoromethyl)phenyl]-5H-[1,3]thiazolo[3,2-a]pyrimidin-5-one] | 59.7% | 85.3% |  |  | 
COc1cccc(/C=C/c2nc3sccn3c(=O)c2-c2ccc(C(F)(F)F)cc2)c1OCC(C)(C)C [Example 29, 7-[(E)-2-(3-Methoxy-2-neopentyloxy)phenyl-1-ethenyl]-6-(4-(trifluoromethyl)phenyl)-5H-[1,3]thiazolo[3,2-a]pyrimidin-5-one] | 86.5% | 93.7% | < 250 nM |  | 
COc1cccc(/C=C/c2nc3sccn3c(=O)c2-c2ccc(C(F)(F)F)cc2)c1OCCCC#N [Example 30] |  |  |  | 45.2% | 75.9%
COCCOc1c(/C=C/c2nc3sccn3c(=O)c2-c2ccc(C(F)(F)F)cc2)cccc1OC [Example 31, {7-[(E)-2-(2-Methoxyethoxy-3-methoxy)phenyl}vinyl]-6-[4-(trifluoromethyl)phenyl]-5H-[1,3]thiazolo[3,2-a]pyrimidin-5-one] | 66.9% | 97.2% | 250 to 500 nM |  | 
CCOCCOc1c(/C=C/c2nc3sccn3c(=O)c2-c2ccc(C(F)(F)F)cc2)cccc1OC [Example 32, {7-[(E)-2-(2-Ethoxyethoxy)-3-methoxy)phenyl-1-ethenyl]-6-[4-(trifluoromethyl)phenyl]-5H-[1,3]thiazolo[3,2-a]pyrimidin-5-one] |  |  | 250 to 500 nM | 89.3% | 97.7%
COc1cccc(/C=C/c2nc3sccn3c(=O)c2-c2ccc(C(F)(F)F)cc2)c1OCC1CC1 [Example 33, {7-[(E)-2-(2-Cyclopropylmethoxy)-3-methoxyphenyl]-1-ethenyl]-6-[4-(trifluoromethyl)phenyl]-5H-[1,3]thiazolo[3,2-a]pyrimidin-5-one] | 85.3% | 97.4% | < 250 nM |  | 
COc1cccc(/C=C/c2nc3sccn3c(=O)c2-c2ccc(C(F)(F)F)cc2)c1OCC1CCC1 [Example 34, 7-[(E)-2-(2-Cyclobutylmethoxy-3-methoxyphenyl)-1-ethenyl]-6-[4-(trifluoromethyl)phenyl]-5H-[1,3]thiazolo[3,2-a]pyrimidin-5-one] | 43.1% | 78.4% |  |  | 
COc1cccc(/C=C/c2nc3sccn3c(=O)c2-c2ccc(C(F)(F)F)cc2)c1OC1CCCC1 [Example 35, 7-[(E)-2-(2-Cyclopentyloxy-3-methoxyphenyl)-1-ethenyl]-6-[4-(trifluoromethyl)phenyl]-5H-[1,3]thiazolo[3,2-a]pyrimidin-5-one] | 29.4% | 68.5% |  |  | 
COc1cccc(/C=C/c2nc3sccn3c(=O)c2-c2ccc(C(F)(F)F)cc2)c1OCc1ccccn1 [Example 36] |  |  |  | 11.2% | 0.0%
COc1ccc(/C=C/c2nc3sccn3c(=O)c2-c2ccc(C(F)(F)F)cc2)cc1OCC1CC1 [Example 37, 7-[(E)-2-(3-Cyclopropylmethoxy-4-methoxyphenyl)-1-ethenyl]-6-[4-(trifluoromethyl)-phenyl]-5H-[1,3]thiazolo[3,2-a]pyrimidin-5-one] | 39.6% | 88.1% |  |  | 
COc1cc(/C=C/c2nc3sccn3c(=O)c2-c2ccc(C(F)(F)F)cc2)ccc1OCC1CC1 [Example 38, 7-[(E)-2-(4-Cyclopropylmethoxy-3-methoxyphenyl)-1-ethenyl]-6-[4-(trifluoromethyl)-phenyl]-5H-[1,3]thiazolo[3,2-a]pyrimidin-5-one] | 28.6% | 50.2% |  |  | 
O=c1c(-c2ccc(C(F)(F)F)cc2)c(/C=C/c2cccnc2)nc2sccn12 [Example 39, 7-[(E)-2-Pyridin-3-ylvinyl]-6-[4-(trifluoromethyl)phenyl]-5H-[1,3]thiazolo[3,2-a]pyrimidin-5-one] | 4.11% | 15.2% |  |  | 
COc1cccc(/C=C/c2nc3sccn3c(=O)c2-c2cccc(C(F)(F)F)c2)c1OCC1CC1 [Example 40, 7-[(E)-2-(2-Cyclopropylmethoxy-3-methoxyphenyl)-1-ethenyl]-6-[3-(trifluoromethyl)phenyl]-5H-[1,3]thiazolo[3,2-a]pyrimidin-5-one] | 4.6% | 31.3% |  |  | 
COc1cccc(/C=C/c2nc3sccn3c(=O)c2-c2ccc(N(C)C)cc2)c1OCC(C)C [Example 41, 6-(4-Dimethylaminophenyl)-7-[(E)-2-(2-isobutoxy-3-methoxyphenyl)-1-ethenyl]-5H-[1,3]thiazolo[3,2-a]pyrimidin-5-one] | 75.5% | 84.5% | 250 to 500 nM |  | 
COc1cccc(/C=C/c2nc3sccn3c(=O)c2-c2ccc(N(C)C)cc2)c1OCC(C)(C)C [Example 42, 6-(4-Dimethylaminophenyl)-7-[(E)-2-(3-methoxy-2-neopentyloxy)phenyl-1-ethenyl]-5H-[1,3]thiazolo[3,2-a]pyrimidin-5-one] | 62.7% | 78.5% |  |  | 
COc1ccc(-c2c(/C=C/c3cccc(OC)c3OCC3CC3)nc3sccn3c2=O)cc1 [Example 43, 7-[(E)-2-(2-Cyclopropylmethoxy-3-methoxyphenyl)-1-ethenyl]-6-(4-methoxy-phenyl)-5H-[1,3]thiazolo[3,2-a]pyrimidin-5-one] | 63.4% | 94% | 500 to 1000 nM |  | 
